Tests used:
[1] = target: T1, HiBiT-BRM fusion protein in stable HeLa cell line (Homo sapiens, UniProt P51531); assay: HiBiT-BRM cell-based degradation assay (Nano-Glo HiBiT Lytic Detection, 24 h); parameters: DC50: scale not given here; conditions: HeLa HiBiT-BRM cells; for DC50: read-out: BRM HiBit Degradation IC50; for BRM HiBit Degradation Maximum (%): top dose 30 μM
T1 construct: expressed in transfected cells
How it was run: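 Stable HiBiT-BRM HeLa cells treated 24 h with 10-point 3-fold dilutions, top final dose 30 μM, in duplicate. Luminescence read after lytic LgBiT reagent. Percent degradation was normalised to DMSO (high control) and 2 μM reference BRM/BRG1 degrader (low control).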

[2] = target: T2, HiBit-BRG1 fusion protein in stable HeLa cell line expressing HiBit-BRG1 and LgBit (Homo sapiens, UniProt P51532); assay: HiBiT-BRG1 cell-based degradation assay (Nano-Glo HiBiT, 24 h); conditions: HeLa HiBit-BRG1/LgBit cells; for DC50: read-out: BRMG1 HiBit Degradation IC50; for Dmax: top dose 30 μM, read-out: BRG1 HiBit Degradation Maximum (%)
T2 construct: expressed in transfected cells
How it was run: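 Stable HeLa line co-expressing HiBiT-BRG1 and LgBiT, compound-treated 24 h; luminescence read after Nano-Glo HiBiT lytic reagent. % degradation normalised between DMSO (high control) and 2 μM reference BRM/BRG1 degrader (low control).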

T1 sequence (P51531 whole entry, the tested form may be a part): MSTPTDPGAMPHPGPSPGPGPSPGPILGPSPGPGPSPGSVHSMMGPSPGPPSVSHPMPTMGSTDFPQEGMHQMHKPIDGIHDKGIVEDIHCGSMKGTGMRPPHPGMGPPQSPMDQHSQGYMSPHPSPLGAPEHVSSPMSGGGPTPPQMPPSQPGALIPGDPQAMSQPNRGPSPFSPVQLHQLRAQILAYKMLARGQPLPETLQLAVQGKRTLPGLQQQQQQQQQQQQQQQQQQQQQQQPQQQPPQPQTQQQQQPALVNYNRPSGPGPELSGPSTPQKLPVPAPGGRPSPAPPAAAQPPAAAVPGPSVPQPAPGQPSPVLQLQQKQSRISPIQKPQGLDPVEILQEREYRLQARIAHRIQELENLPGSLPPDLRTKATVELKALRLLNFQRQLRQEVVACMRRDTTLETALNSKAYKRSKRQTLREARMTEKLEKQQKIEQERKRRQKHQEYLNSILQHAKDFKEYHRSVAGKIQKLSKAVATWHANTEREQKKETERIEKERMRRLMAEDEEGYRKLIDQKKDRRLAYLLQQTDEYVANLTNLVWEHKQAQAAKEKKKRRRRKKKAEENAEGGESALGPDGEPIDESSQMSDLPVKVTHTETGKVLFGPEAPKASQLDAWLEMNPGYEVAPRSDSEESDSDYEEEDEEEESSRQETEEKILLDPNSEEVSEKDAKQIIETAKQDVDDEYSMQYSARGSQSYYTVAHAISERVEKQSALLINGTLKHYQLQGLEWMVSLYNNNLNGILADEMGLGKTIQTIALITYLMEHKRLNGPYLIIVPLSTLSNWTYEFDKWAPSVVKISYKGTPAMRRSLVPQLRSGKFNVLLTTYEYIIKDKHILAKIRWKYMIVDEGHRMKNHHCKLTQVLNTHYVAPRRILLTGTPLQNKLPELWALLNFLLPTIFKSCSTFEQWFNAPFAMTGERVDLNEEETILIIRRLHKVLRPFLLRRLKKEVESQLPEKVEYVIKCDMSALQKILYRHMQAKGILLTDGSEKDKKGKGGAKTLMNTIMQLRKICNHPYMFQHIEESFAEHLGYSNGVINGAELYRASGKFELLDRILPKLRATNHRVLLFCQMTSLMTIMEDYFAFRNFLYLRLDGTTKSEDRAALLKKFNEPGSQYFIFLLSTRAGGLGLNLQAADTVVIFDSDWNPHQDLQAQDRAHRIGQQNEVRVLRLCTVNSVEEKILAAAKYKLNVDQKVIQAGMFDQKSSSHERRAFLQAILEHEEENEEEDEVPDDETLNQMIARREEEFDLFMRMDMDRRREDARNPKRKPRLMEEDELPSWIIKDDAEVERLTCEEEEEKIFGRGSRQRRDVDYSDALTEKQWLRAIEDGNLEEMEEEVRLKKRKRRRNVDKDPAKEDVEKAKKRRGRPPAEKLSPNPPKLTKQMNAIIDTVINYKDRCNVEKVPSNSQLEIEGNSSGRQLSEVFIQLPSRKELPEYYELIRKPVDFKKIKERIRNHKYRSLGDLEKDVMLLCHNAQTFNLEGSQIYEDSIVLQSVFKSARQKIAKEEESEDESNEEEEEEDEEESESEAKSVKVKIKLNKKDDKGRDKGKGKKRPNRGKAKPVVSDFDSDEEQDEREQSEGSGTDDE
T2 sequence (P51532 whole entry, the tested form may be a part): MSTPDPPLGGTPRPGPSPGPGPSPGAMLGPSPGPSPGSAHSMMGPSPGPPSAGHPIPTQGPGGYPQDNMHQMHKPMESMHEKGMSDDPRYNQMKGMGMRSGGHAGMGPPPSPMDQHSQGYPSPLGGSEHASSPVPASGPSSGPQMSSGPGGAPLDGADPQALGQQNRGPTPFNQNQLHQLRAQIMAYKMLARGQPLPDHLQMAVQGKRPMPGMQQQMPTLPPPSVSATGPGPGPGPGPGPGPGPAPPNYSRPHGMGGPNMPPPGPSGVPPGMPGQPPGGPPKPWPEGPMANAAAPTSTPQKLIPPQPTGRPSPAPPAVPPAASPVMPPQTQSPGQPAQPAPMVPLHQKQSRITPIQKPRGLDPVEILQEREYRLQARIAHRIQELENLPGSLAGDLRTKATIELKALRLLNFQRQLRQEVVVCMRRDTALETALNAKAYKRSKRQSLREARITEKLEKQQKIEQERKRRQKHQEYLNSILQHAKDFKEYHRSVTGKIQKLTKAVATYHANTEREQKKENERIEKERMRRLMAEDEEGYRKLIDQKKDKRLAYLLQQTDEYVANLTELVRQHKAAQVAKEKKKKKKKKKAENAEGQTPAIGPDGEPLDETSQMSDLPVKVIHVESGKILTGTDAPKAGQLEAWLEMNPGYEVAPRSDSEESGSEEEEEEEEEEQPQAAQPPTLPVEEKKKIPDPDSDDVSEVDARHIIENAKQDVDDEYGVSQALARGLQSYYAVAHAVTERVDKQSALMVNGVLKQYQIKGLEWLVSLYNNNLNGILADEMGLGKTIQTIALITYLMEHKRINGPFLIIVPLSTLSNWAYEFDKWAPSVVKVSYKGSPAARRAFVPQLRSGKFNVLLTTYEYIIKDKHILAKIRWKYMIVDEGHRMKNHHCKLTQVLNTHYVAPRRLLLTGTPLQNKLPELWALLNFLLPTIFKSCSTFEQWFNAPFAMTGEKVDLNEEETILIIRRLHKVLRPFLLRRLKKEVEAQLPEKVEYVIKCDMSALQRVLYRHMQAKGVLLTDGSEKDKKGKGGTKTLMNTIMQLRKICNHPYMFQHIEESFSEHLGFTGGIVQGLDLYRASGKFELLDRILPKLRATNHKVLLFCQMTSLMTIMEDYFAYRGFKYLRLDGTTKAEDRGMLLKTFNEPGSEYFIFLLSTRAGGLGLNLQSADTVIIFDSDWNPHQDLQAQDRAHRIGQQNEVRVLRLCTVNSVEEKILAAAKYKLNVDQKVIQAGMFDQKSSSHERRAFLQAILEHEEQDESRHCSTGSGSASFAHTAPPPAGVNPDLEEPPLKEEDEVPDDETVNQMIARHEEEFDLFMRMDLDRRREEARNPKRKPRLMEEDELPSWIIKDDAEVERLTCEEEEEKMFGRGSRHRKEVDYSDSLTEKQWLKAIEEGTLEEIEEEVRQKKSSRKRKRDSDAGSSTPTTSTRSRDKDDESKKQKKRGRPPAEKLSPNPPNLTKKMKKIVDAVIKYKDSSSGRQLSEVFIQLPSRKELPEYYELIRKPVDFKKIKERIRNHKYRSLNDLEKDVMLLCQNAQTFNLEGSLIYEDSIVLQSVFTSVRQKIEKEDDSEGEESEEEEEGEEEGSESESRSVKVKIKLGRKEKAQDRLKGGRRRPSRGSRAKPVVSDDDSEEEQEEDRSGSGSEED

DC50 [1]	DC50 [2]	Dmax [2]	Compound	BRM HiBit Degradation Maximum (%) [1]
< 10 nM	> 10 nM	> 75%	Cc1ncsc1-c1ccc([C@H](C)NC(=O)[C@H]2C[C@H](O)CN2C(=O)C(c2cc(N3C[C@@H]4C[C@H]3CN4c3ccc4cc(-c5ccccc5O)nnc4c3)no2)C(C)C)cc1 (stereo partly drawn) [Compound 224, (2R,4S)-4-hydroxy-1-(2-(3-((1S,4S)-5-(3-(2-hydroxyphenyl)cinnolin-7-yl)-2,5-diazabicyclo[2.2.1]heptan-2-yl)isoxazol-5-yl)-3-methylbutanoyl)-N-((S)-1-(4-(4-methylthiazol-5-yl)phenyl)ethyl)pyrrolidine-2-carboxamide]	A (“A” indicates maximum degradation ≥75%)
< 10 nM	> 10 nM	> 75%	Cc1ncsc1-c1ccc([C@H](C)NC(=O)[C@@H]2C[C@@H](O)CN2C(=O)C(c2cc(N3CCC(C4CN(c5ccc6cc(-c7ccccc7O)nnc6c5)C4)CC3)no2)C(C)C)cc1 (stereo partly drawn) [Compound 225, (2S,4R)-4-hydroxy-1-(2-(3-(4-(1-(3-(2-hydroxyphenyl)cinnolin-7-yl)azetidin-3-yl)piperidin-1-yl)isoxazol-5-yl)-3-methylbutanoyl)-N-((S)-1-(4-(4-methylthiazol-5-yl)phenyl)ethyl)pyrrolidine-2-carboxamide]	A (“A” indicates maximum degradation ≥75%)
> 10 nM	–	< 50%	Cc1ncsc1-c1ccc([C@H](C)NC(=O)[C@@H]2C[C@@H](O)CN2C(=O)C(c2cc(N3C[C@@H]4CN(c5ccc6cc(-c7ccccc7O)nnc6c5)C[C@H]4C3)no2)C(C)C)cc1 (stereo partly drawn) [Compound 226, (2S,4R)-4-hydroxy-1-(2-(3-((3aS,6aS)-5-(3-(2-hydroxyphenyl)cinnolin-7-yl)hexahydropyrrolo[3,4-c]pyrrol-2(1H)-yl)isoxazol-5-yl)-3-methylbutanoyl)-N-((S)-1-(4-(4-methylthiazol-5-yl)phenyl)ethyl)pyrrolidine-2-carboxamide]	A (“A” indicates maximum degradation ≥75%)
> 100 nM	> 100 nM	> 50%	CC(C)[C@@H](C(=O)N1C[C@H](O)C[C@H]1C(=O)N[C@@H](C)c1ccc(F)cc1)c1cc(N2CC3(CC(c4cc5nnc(-c6ccccc6O)cc5cc4C#N)C3)C2)no1 [Compound 227, (2S,4R)-1-((R)-2-(3-(6-(6-cyano-3-(2-hydroxyphenyl)cinnolin-7-yl)-2-azaspiro[3.3]heptan-2-yl)isoxazol-5-yl)-3-methylbutanoyl)-N-((S)-1-(4-fluorophenyl)ethyl)-4-hydroxypyrrolidine-2-carboxamide]	A (“A” indicates maximum degradation ≥75%)
< 10 nM	< 10 nM	> 75%	Cc1ncsc1-c1ccc([C@H](C)NC(=O)[C@@H]2C[C@@H](O)CN2C(=O)[C@@H](c2cc(N3CC4=C(CN(c5ccc6cc(-c7ccccc7O)nnc6c5)C4)C3)no2)C(C)C)cc1 [Compound 228, (2S,4R)-4-hydroxy-1-((R)-2-(3-(5-(3-(2-hydroxyphenyl)cinnolin-7-yl)-3,4,5,6-tetrahydropyrrolo[3,4-c]pyrrol-2(1H)-yl)isoxazol-5-yl)-3-methylbutanoyl)-N-((S)-1-(4-(4-methylthiazol-5-yl)phenyl)ethyl)pyrrolidine-2-carboxamide]	A (“A” indicates maximum degradation ≥75%)
< 10 nM	< 10 nM	> 75%	Cc1ncsc1-c1ccc([C@H](C)NC(=O)[C@@H]2C[C@@H](O)CN2C(=O)[C@@H](c2cc(N3CC4=C(CN(c5ccc6nnc(-c7ccccc7O)cc6c5)C4)C3)no2)C(C)C)cc1 [Compound 229, (2S,4R)-4-hydroxy-1-((R)-2-(3-(5-(3-(2-hydroxyphenyl)cinnolin-6-yl)-3,4,5,6-tetrahydropyrrolo[3,4-c]pyrrol-2(1H)-yl)isoxazol-5-yl)-3-methylbutanoyl)-N-((S)-1-(4-(4-methylthiazol-5-yl)phenyl)ethyl)pyrrolidine-2-carboxamide]	A (“A” indicates maximum degradation ≥75%)
< 10 nM	> 10 nM	> 75%	Cc1ncsc1-c1ccc([C@H](C)NC(=O)[C@@H]2C[C@@H](O)CN2C(=O)[C@H](C(C)C)n2cc(C3CC4(CC(c5ccc6nnc(-c7ccccc7O)cc6c5)C4)C3)nn2)cc1 (stereo partly drawn) [Compound 230, (2S,4R)-4-hydroxy-1-((S)-2-(4-(6-(3-(2-hydroxyphenyl)cinnolin-6-yl)spiro[3.3]heptan-2-yl)-1H-1,2,3-triazol-1-yl)-3-methylbutanoyl)-N-((S)-1-(4-(4-methylthiazol-5-yl)phenyl)ethyl)pyrrolidine-2-carboxamide]	A (“A” indicates maximum degradation ≥75%)
< 10 nM	< 10 nM	> 75%	Cc1ncsc1-c1ccc([C@H](C)NC(=O)[C@@H]2C[C@@H](O)CN2C(=O)[C@@H](c2cc(-c3cnc(N4CC5(CN(c6ccc7cc(-c8ccccc8O)nnc7c6)C5)C4)nc3)no2)C(C)C)cc1 [Compound 231, (2S,4R)-4-hydroxy-1-((R)-2-(3-(2-(6-(3-(2-hydroxyphenyl)cinnolin-7-yl)-2,6-diazaspiro[3.3]heptan-2-yl)pyrimidin-5-yl)isoxazol-5-yl)-3-methylbutanoyl)-N-((S)-1-(4-(4-methylthiazol-5-yl)phenyl)ethyl)pyrrolidine-2-carboxamide]	A (“A” indicates maximum degradation ≥75%)
> 10 nM	–	< 50%	Cc1ncsc1-c1ccc([C@H](C)NC(=O)[C@@H]2C[C@@H](O)CN2C(=O)[C@@H](c2cc(N3CC4(CN(Cc5ccc6cc(-c7ccccc7O)nnc6c5)C4)C3)no2)C(C)C)cc1 [Compound 232, (2S,4R)-4-hydroxy-1-((R)-2-(3-(6-((3-(2-hydroxyphenyl)cinnolin-7-yl)methyl)-2,6-diazaspiro[3.3]heptan-2-yl)isoxazol-5-yl)-3-methylbutanoyl)-N-((S)-1-(4-(4-methylthiazol-5-yl)phenyl)ethyl)pyrrolidine-2-carboxamide]	A (“A” indicates maximum degradation ≥75%)
< 10 nM	< 10 nM	> 75%	Cc1ncsc1-c1ccc([C@H](C)NC(=O)[C@@H]2C[C@@H](O)CN2C(=O)C(C(C)C)n2cc(N3CCC4(CCN(c5ccc6cc(-c7ccccc7O)nnc6c5)CC4)C3)nn2)cc1 (stereo partly drawn) [Compound 233, (2S,4R)-4-hydroxy-1-(2-(4-(8-(3-(2-hydroxyphenyl)cinnolin-7-yl)-2,8-diazaspiro[4.5]decan-2-yl)-1H-1,2,3-triazol-1-yl)-3-methylbutanoyl)-N-((S)-1-(4-(4-methylthiazol-5-yl)phenyl)ethyl)pyrrolidine-2-carboxamide]	A (“A” indicates maximum degradation ≥75%)
< 10 nM	> 10 nM	> 50%	Cc1ncsc1-c1ccc([C@H](C)NC(=O)[C@@H]2C[C@@H](O)CN2C(=O)C(C(C)C)n2cc(N3CCC4(CC3)CCN4c3ccc4cc(-c5ccccc5O)nnc4c3)nn2)cc1 (stereo partly drawn) [Compound 234, (2S,4R)-4-hydroxy-1-(2-(4-(1-(3-(2-hydroxyphenyl)cinnolin-7-yl)-1,7-diazaspiro[3.5]nonan-7-yl)-1H-1,2,3-triazol-1-yl)-3-methylbutanoyl)-N-((S)-1-(4-(4-methylthiazol-5-yl)phenyl)ethyl)pyrrolidine-2-carboxamide]	A (“A” indicates maximum degradation ≥75%)
< 10 nM	> 10 nM	> 75%	Cc1ncsc1-c1ccc([C@H](C)NC(=O)[C@@H]2C[C@@H](O)CN2C(=O)C(C(C)C)n2cc(N3CCC(C4CN(c5ccc6cc(-c7ccccc7O)nnc6c5)C4)C3)nn2)cc1 (stereo partly drawn) [Compound 235, (2S,4R)-4-hydroxy-1-(2-(4-(3-(1-(3-(2-hydroxyphenyl)cinnolin-7-yl)azetidin-3-yl)pyrrolidin-1-yl)-1H-1,2,3-triazol-1-yl)-3-methylbutanoyl)-N-((S)-1-(4-(4-methylthiazol-5-yl)phenyl)ethyl)pyrrolidine-2-carboxamide]	A (“A” indicates maximum degradation ≥75%)
> 10 nM	–	< 50%	CC(C)[C@@H](C(=O)N1C[C@H](O)C[C@H]1C(=O)N[C@@H](C)c1ccc(F)cc1)c1cc(N2CC3(C2)CN(c2cc4nnc(-c5ccccc5O)cc4cc2C(F)F)C3)no1 [Compound 236, (2S,4R)-1-((R)-2-(3-(6-(6-(difluoromethyl)-3-(2-hydroxyphenyl)cinnolin-7-yl)-2,6-diazaspiro[3.3]heptan-2-yl)isoxazol-5-yl)-3-methylbutanoyl)-N-((S)-1-(4-fluorophenyl)ethyl)-4-hydroxypyrrolidine-2-carboxamide]	A (“A” indicates maximum degradation ≥75%)
< 10 nM	< 10 nM	> 75%	CCOc1cc2cc(-c3ccccc3O)nnc2cc1N1CC2(CN(c3cc([C@H](C(=O)N4C[C@H](O)C[C@H]4C(=O)N[C@@H](C)c4ccc(-c5scnc5C)cc4)C(C)C)on3)C2)C1 [Compound 237, (2S,4R)-1-((R)-2-(3-(6-(6-ethoxy-3-(2-hydroxyphenyl)cinnolin-7-yl)-2,6-diazaspiro[3.3]heptan-2-yl)isoxazol-5-yl)-3-methylbutanoyl)-4-hydroxy-N-((S)-1-(4-(4-methylthiazol-5-yl)phenyl)ethyl)pyrrolidine-2-carboxamide]	A (“A” indicates maximum degradation ≥75%)

Reference: patent US20260193264A1, “BENZOYPARAZINE PYRAZINES AND THEIR USES” (FOGHORN THERAPEUTICS INC., priority 2022, published 2026)
